Experimental data published in publication PMC3265452 (PLoS Neglected Tropical Diseases, 2012).
Structures can show the parent of a compound that is named as a salt.

Each compound was assayed against AaDOP2 (Aedes aegypti, UniProt H6D5H2) (assay: AaDOP2 antagonist screen of the LOPAC1280 library (HEK-CRELuc-Aadop2 cells, luminescence)). Details: not given.
Format: cell-based

Chain of AaDOP2 (H6D5H2 1-476): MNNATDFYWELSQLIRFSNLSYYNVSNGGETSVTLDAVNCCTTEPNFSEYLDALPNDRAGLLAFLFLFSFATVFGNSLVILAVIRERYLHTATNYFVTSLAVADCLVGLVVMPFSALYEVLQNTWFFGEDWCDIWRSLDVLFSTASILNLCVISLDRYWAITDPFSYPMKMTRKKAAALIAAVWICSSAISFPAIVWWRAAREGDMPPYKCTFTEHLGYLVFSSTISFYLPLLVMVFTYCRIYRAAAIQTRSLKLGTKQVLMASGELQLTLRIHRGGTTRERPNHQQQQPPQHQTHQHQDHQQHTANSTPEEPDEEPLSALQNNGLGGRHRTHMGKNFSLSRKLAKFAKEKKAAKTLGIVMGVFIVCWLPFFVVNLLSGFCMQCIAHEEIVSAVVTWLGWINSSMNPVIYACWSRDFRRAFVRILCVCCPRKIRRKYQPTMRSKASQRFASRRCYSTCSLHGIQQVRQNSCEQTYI

Compound | Compound effect (percent receptor signaling in presence of test compound, relative lux units relative to the SCH23390 control)
C[C@@H]1O[C@@H](O[C@H]2C[C@@H](O)[C@]3(CO)[C@H]4[C@H](O)C[C@]5(C)[C@@H]([C@@H]6COC(=O)C6)CC[C@]5(O)[C@@H]4CC[C@]3(O)C2)[C@H](O)[C@H](O)[C@H]1O [Compound 356, Dihydroouabain] | 56
CCCn1c(=O)[nH]c(=O)c2[nH]cnc21 [Compound 955, 3-n-Propylxanthine] | 93
CCOC(=O)[C@]12CC1/C(=N\O)c1ccccc1O2 (mixture of isomers) [Compound 318, CPCCOEt] | 58
NC(=O)CN1CCCC1=O [Compound 951, Piracetam] | 103
CN1Cc2c(N)cccc2C(c2ccccc2)C1 (stereo not drawn) [Compound 840, Nomifensine maleate] | 42
CC1(C)CCC2=C(O1)c1ccccc1C(=O)C2=O [Compound 696, beta-Lapachone] | 14
Oc1cccc2c(O)nccc12 [Compound 674, 1,5-Isoquinolinediol] | 92
C[N+]1(C)CCOC(O)(c2ccc(-c3ccc(C4(O)C[N+](C)(C)CCO4)cc3)cc2)C1 (stereo not drawn) [Compound 618, Hemicholinium-3] | 106
C[C@]12C[C@H](O)[C@H]3[C@@H](CCC4=CC(=O)CC[C@@]43C)[C@@H]1CC[C@@H]2C(=O)CO [Compound 238, Corticosterone] | 87
C[N+]1(C)CCN(c2ccccc2)CC1.[I-] [Compound 400, 1,1-Dimethyl-4-phenyl-piperazinium iodide] | 87
CN(C)CC[C@@H](c1ccc(Br)cc1)c1ccccn1 [Compound 176, (+)-Brompheniramine maleate] | 97
Nc1nc(Nc2ccccc2)nc2c1ncn2[C@@H]1O[C@H](CO)[C@@H](O)[C@H]1O [Compound 1002, 2-Phenylaminoadenosine] | 106
O=c1c(-c2ccc(O)cc2)coc2cc(O)cc(O)c12 [Compound 556, Genistein] | 67
CCn1cc(C(=O)O)c(=O)c2cc3c(cc21)OCO3 [Compound 896, Oxolinic acid] | 108
COc1ccc2c(c1)c(CC(=O)O)c(C)n2C(=O)c1ccc(Cl)cc1 [Compound 654, Indomethacin] | 100
N=C(N)NC(=N)Nc1ccccc1 [Compound 1011, 1-Phenylbiguanide] | 81

Compound | Compound effect (percent receptor signaling in presence of test compound, relative lux units relative to the SCH23390 control)
CC(C)(C)NCC(O)c1ccccc1Cl (stereo not drawn) [Compound 1187, Tulobuterol hydrochloride] | 104
CCCN(CCC)C1Cc2cc(OC)c(OC)cc2C1.O=C(O)/C=C\C(=O)O [Compound 1249, U-99194A maleate] | 97
CC1(C(=O)O)C2CCC(O2)C1(C)C(=O)O (stereo not drawn) [Compound 304, Cantharidic Acid] | 120
O=C1C=CC(=O)C=C1 [Compound 156, p-Benzoquinone] | 96
CC(C)(C)c1o[nH]c(=O)c1CC(N)C(=O)O (stereo not drawn) [Compound 150, ATPA] | 101
Brc1c(NC2=NCCN2)ccc2nccnc12 [Compound 1242, UK 14,304] | 87
CN(C)CCOC(=O)COc1ccc(Cl)cc1 [Compound 313, Centrophenoxine hydrochloride] | 99
Nc1nnc(-c2cccc(Cl)c2Cl)c(N)n1 [Compound 701, Lamotrigine] | 87
CCCCc1oc2ccccc2c1C(=O)c1cc(I)c(OCCN(CC)CC)c(I)c1 [Compound 93, Amiodarone hydrochloride] | 104
CN(C)CC[C@@H](c1ccc(Cl)cc1)c1ccccn1 [Compound 267, (+)-Chlorpheniramine maleate] | 106
S=C(NC1CCCCC1)N1CCC(c2cnc[nH]2)CC1 [Compound 1226, Thioperamide maleate] | 90
CCNC(=O)[C@H]1O[C@@H](n2cnc3c(N)nc(NCCc4ccc(CCC(=O)O)cc4)nc32)[C@H](O)[C@@H]1O.Cl [Compound 337, CGS-21680 hydrochloride] | 112
CCCNCC(O)COc1ccccc1C(=O)CCc1ccccc1 (stereo not drawn) [Compound 948, Propafenone hydrochloride] | 74
O.c1cnc2c(c1)ccc1cccnc12 [Compound 995, 1,10-Phenanthroline monohydrate] | 95
COc1ccc2[nH]c3c(c2c1)CCNC3 [Compound 9, 6-Methoxy-1,2,3,4-tetrahydro-9H-pyrido[3,4b] indole] | 116

Same assay, conditions: 10 µM compound, 300 nM dopamine, 2 hr; hit = compound effect <20

Compound | Compound effect (percent receptor signaling in presence of test compound, relative lux units relative to the SCH23390 control)
N[C@H](CCC(=O)NCS(=O)(=O)O)C(=O)O [Compound 566, gamma-D-Glutamylaminomethylsulfonic acid] | 109%
Cc1ccc(/C(=C\CN2CCCC2)c2ccccn2)cc1.Cl [Compound 1193, Triprolidine hydrochloride] | 78%
COc1cc2c(CCNC(C)=O)c[nH]c2cc1Cl [Compound 218, 6-Chloromelatonin] | 90%
Cl.NC(N)=NCCNS(=O)(=O)c1cccc2cnccc12 [Compound 619, HA-1004 hydrochloride] | 89%
(±)-PD 128,907 hydrochloride [Compound 1024] | 95%
COc1ccccc1N1CCN(CC(O)COc2cccc3ccccc23)CC1.Cl.Cl (stereo not drawn) [Compound 887, Naftopidil dihydrochloride] | 79%
[N-]=[N+]=Nc1ccc(C(=O)CSC[C@H](NC(=O)CC[C@H](N)C(=O)O)C(=O)NCC(=O)O)cc1 [Compound 27, S-(p-Azidophenacyl)glutathione] | 105%

Same assay, conditions: read-out: % of the SCH23390 effect (percent inhibition of receptor response relative to the SCH23390 control)

Compound | inhibition at 10 µM
CC1(C)CCC2=C(O1)c1ccccc1C(=O)C2=O [Compound 696, beta-Lapachone] | 86%
